What was measured:
[1] = biological target: T1, Tyrosine kinase 2 TK2 (JH2 domain pseudokinase) (Homo sapiens, UniProt P29597); test: KINOMEscan competition binding, single concentration […]; details: read-out: % of control at 100 μM
T1 construct: gene TYK2; JH2 domain pseudokinase

[2] = biological target: T2, ABL1(Q252H)-phosphorylated (Homo sapiens, UniProt P00519, Q252H); test: biochemical; set-up: KINOMEscan scanMAX active site-directed competition binding assay, percent of control, 468 kinases; details: competition binding, percent of control
T2 construct: phosphorylated
In short: (§1)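 Single-concentration screen (100 μM S-carvone) in a competition binding panel of 468 human kinases (KINOMEscan scanMAX); results given as percent of control, hit cutoff 35%.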

AKT2 = AKT2 (Homo sapiens, UniProt P31751); test: biochemical; set-up: KINOMEscan scanMAX active site-directed competition binding assay, percent of control, 468 kinases; details: competition binding, percent of control
Chain of AKT2 (P31751 whole entry): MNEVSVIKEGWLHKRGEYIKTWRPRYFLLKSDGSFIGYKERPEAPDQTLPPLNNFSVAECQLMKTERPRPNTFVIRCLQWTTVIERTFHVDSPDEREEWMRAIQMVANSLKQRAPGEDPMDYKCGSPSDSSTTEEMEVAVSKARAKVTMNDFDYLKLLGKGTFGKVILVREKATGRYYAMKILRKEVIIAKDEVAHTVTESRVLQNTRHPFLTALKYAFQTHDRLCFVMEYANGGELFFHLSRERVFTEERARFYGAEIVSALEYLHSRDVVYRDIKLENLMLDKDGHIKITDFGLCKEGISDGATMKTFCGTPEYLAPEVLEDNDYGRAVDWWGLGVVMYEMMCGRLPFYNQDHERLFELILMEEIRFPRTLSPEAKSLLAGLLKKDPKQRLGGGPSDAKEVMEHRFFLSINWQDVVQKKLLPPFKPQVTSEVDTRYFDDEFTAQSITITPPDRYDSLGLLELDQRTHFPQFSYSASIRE
In short: as §1

ARK5 = biological target: T3, ARK5 (Homo sapiens, UniProt O60285); test: biochemical; set-up: KINOMEscan scanMAX active site-directed competition binding assay, percent of control, 468 kinases; details: competition binding, percent of control
T3 construct: gene NUAK1
T3 sequence (O60285 whole entry): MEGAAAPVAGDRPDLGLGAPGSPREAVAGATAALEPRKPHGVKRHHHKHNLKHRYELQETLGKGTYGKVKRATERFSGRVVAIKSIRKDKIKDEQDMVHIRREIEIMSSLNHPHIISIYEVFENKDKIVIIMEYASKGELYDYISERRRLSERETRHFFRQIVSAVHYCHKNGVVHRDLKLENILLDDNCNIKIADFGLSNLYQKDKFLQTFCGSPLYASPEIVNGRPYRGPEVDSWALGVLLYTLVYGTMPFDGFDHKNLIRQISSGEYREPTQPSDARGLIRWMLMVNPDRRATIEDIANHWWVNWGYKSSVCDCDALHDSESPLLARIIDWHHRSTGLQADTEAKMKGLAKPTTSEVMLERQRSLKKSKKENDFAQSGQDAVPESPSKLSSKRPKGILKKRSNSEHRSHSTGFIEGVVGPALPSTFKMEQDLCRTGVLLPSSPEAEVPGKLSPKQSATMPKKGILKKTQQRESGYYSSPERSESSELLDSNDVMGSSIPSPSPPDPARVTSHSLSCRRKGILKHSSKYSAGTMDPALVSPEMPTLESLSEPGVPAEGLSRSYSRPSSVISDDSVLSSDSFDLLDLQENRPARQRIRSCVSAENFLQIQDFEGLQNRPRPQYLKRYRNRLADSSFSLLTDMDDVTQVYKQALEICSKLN
In short: as §1

CLK2 = CLK2 (Homo sapiens, UniProt P49760); test: biochemical; set-up: KINOMEscan scanMAX active site-directed competition binding assay, percent of control, 468 kinases; details: competition binding, percent of control
Chain of CLK2 (P49760 whole entry): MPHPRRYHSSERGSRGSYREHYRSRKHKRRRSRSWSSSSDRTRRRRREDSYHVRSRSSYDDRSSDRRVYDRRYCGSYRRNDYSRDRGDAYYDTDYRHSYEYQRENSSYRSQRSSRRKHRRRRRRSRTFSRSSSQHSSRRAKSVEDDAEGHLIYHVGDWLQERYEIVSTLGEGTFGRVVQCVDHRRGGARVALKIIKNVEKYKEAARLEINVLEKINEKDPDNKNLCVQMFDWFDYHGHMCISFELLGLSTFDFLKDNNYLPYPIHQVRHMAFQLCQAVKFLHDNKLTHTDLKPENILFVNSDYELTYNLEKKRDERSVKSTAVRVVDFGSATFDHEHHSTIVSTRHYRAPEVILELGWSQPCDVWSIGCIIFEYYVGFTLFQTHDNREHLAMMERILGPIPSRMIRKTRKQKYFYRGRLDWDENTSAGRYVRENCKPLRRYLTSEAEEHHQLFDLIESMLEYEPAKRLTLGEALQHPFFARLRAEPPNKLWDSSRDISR
In short: as §1

GCN2(Kin.Dom.2,S808G) = biological target: T4, GCN2(Kin.Dom.2,S808G) (Homo sapiens, UniProt Q9P2K8, S808G); test: biochemical; set-up: KINOMEscan scanMAX active site-directed competition binding assay, percent of control, 468 kinases; details: competition binding, percent of control
T4 construct: gene EIF2AK4; Kin.Dom.2
In short: as §1

GRK4 = GRK4 (Homo sapiens, UniProt P32298); test: biochemical; set-up: KINOMEscan scanMAX active site-directed competition binding assay, percent of control, 468 kinases; details: competition binding, percent of control
In short: as §1

KIT(D816H) = KIT(D816H) (Homo sapiens, UniProt P10721, D816H); test: biochemical; set-up: KINOMEscan scanMAX active site-directed competition binding assay, percent of control, 468 kinases; details: competition binding, percent of control
Chain of KIT(D816H) (P10721 whole entry D816H): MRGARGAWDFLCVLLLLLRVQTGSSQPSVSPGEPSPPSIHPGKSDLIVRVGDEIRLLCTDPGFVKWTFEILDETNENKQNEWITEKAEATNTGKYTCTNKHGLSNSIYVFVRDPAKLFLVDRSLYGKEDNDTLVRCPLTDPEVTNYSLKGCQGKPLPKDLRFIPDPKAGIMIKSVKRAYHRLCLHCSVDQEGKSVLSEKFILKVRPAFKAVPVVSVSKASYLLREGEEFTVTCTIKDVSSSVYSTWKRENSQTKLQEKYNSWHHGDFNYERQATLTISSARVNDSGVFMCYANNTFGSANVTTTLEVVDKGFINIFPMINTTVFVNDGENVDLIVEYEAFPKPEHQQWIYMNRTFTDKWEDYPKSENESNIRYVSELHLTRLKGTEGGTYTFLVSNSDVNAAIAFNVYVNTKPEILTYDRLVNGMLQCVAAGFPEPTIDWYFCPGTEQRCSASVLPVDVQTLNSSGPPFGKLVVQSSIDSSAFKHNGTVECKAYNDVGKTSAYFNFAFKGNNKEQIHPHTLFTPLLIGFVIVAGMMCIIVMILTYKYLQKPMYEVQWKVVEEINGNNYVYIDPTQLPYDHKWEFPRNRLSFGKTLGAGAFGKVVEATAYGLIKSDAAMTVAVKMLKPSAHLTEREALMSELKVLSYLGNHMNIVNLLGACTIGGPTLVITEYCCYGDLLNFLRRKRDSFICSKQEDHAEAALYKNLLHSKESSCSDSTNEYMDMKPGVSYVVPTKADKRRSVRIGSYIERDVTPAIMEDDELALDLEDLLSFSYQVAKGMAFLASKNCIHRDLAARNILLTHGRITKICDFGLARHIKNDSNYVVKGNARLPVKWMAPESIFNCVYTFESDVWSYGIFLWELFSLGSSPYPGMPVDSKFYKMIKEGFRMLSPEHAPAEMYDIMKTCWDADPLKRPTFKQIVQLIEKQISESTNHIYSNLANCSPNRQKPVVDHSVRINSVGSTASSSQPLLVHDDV
In short: as §1

NEK3 = NEK3 (Homo sapiens, UniProt P51956); test: biochemical; set-up: KINOMEscan scanMAX active site-directed competition binding assay, percent of control, 468 kinases; details: competition binding, percent of control
Chain of NEK3 (P51956 whole entry): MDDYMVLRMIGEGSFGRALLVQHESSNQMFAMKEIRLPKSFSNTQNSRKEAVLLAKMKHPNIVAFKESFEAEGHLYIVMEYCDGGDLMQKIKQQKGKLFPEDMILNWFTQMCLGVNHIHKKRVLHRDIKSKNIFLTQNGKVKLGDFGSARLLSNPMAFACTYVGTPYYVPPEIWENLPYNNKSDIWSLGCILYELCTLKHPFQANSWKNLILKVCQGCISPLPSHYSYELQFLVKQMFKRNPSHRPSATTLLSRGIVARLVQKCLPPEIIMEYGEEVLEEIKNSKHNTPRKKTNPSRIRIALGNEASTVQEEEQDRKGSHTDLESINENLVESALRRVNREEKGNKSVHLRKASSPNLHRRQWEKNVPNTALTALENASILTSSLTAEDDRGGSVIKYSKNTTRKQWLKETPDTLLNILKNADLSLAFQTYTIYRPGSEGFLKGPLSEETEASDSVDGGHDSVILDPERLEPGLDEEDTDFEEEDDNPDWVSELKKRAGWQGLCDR
In short: as §1

NIK = biological target: T5, NIK (Homo sapiens, UniProt Q99558); test: biochemical; set-up: KINOMEscan scanMAX active site-directed competition binding assay, percent of control, 468 kinases; details: competition binding, percent of control
T5 construct: gene MAP3K14
In short: as §1

PKN2 = PKN2 (Homo sapiens, UniProt Q16513); test: biochemical; set-up: KINOMEscan scanMAX active site-directed competition binding assay, percent of control, 468 kinases; details: competition binding, percent of control
In short: as §1

RET(M918T) = RET(M918T) (Homo sapiens, UniProt P07949, M918T); test: biochemical; set-up: KINOMEscan scanMAX active site-directed competition binding assay, percent of control, 468 kinases; details: competition binding, percent of control
Chain of RET(M918T) (P07949 whole entry M918T): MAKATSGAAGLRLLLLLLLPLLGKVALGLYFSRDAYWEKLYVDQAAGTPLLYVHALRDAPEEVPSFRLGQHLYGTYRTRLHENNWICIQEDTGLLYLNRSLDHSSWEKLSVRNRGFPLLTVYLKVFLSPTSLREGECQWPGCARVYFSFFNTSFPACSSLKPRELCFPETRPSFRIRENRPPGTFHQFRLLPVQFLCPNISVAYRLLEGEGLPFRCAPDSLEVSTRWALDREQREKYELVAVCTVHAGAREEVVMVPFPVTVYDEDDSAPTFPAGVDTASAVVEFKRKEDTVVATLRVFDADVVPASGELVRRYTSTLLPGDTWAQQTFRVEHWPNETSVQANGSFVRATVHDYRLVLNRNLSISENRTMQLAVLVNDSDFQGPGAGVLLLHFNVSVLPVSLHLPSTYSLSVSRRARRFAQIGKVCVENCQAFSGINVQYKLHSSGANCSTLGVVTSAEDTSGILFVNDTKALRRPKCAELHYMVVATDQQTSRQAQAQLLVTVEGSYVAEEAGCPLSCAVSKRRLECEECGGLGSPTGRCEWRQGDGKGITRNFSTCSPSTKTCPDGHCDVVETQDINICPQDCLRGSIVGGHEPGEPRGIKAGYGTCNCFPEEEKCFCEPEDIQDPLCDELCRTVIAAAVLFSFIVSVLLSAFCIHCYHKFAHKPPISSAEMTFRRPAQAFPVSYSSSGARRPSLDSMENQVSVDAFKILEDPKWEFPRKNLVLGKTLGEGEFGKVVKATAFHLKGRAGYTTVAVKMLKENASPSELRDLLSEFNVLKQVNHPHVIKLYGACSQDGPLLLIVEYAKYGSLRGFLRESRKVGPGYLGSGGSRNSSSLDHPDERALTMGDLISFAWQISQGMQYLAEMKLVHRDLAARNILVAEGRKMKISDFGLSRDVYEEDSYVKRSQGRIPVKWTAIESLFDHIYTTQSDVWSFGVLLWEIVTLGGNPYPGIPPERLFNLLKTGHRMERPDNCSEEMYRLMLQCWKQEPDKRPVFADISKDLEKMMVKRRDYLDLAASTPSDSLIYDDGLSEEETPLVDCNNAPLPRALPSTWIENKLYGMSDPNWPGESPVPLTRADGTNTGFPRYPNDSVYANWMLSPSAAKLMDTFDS
In short: as §1

SgK110 = biological target: T6, SgK110 (Homo sapiens, UniProt P0C264); test: biochemical; set-up: KINOMEscan scanMAX active site-directed competition binding assay, percent of control, 468 kinases; details: competition binding, percent of control
T6 construct: gene SBK3
T6 sequence (P0C264 whole entry): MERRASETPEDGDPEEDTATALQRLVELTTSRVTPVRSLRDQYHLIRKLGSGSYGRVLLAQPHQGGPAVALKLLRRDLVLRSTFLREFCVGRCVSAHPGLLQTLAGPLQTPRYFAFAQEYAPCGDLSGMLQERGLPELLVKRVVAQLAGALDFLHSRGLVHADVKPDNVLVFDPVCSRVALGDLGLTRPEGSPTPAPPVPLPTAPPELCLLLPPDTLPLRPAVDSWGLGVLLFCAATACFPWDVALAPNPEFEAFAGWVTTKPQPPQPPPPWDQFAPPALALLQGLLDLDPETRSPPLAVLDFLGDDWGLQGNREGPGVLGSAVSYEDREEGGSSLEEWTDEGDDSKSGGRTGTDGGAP
In short: as §1

VEGFR2 = biological target: T7, VEGFR2 (Homo sapiens, UniProt P35968); test: biochemical; set-up: KINOMEscan scanMAX active site-directed competition binding assay, percent of control, 468 kinases; details: competition binding, percent of control
T7 construct: gene KDR
In short: as §1

T1 sequence (P29597 589-875 limits assumed): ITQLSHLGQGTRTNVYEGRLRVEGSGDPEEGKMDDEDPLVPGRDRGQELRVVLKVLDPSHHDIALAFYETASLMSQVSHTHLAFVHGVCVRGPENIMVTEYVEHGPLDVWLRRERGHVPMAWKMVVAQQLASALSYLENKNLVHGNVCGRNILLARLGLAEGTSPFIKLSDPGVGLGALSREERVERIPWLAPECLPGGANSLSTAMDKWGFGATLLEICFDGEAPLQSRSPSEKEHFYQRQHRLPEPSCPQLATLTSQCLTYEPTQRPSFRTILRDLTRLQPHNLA

remaining binding at 100 µM [1]: 27%
remaining binding at 100 µM [2]: 55%
remaining binding at 100 µM (AKT2): 86%
remaining binding at 100 µM (ARK5): 100%
remaining binding at 100 µM (CLK2): 60%
remaining binding at 100 µM (GCN2(Kin.Dom.2,S808G)): 63%
remaining binding at 100 µM (GRK4): 66%
remaining binding at 100 µM (KIT(D816H)): 46%
remaining binding at 100 µM (NEK3): 49%
remaining binding at 100 µM (NIK): 84%
remaining binding at 100 µM (PKN2): 83%
remaining binding at 100 µM (RET(M918T)): 93%
remaining binding at 100 µM (SgK110): 93%
remaining binding at 100 µM (VEGFR2): 60%
Compound: C=C(C)[C@H]1CC=C(C)C(=O)C1 [S-carvone]

— publication PMC10174618, “Monoterpenoid aryl hydrocarbon receptor allosteric antagonists protect against ultraviolet skin damage in female mice” (Nature Communications, 2023)
